Measurements as given in US20090163461A1, “Ligand for Vesicular Acetylcholine Transporter” (priority 2005, published 2009).

Key:
[1] = Tissue distribution of radioactivity after intravenous injection in rats; format: in vivo; settings: rat
Procedure: From the tail vein of each rat, an injection containing 20 MBq of (−)-[^11C]-o-MeVES (0.2 ml) was administered. At 5 minutes, 15 minutes, 30 minutes, and 60 minutes after administration, the rats were killed by cervical dislocation, and blood was drawn from the heart using a syringe, after which tissues such as the heart, lungs, liver, and brain were extirpated, and the radioactivity in each tissue was measured using a gamma counter. Each tissue was also weighed.

[2] = target: T1, VAChT in the brain (Rattus norvegicus, UniProt Q62666); assay: Rat brain ex vivo autoradiography; format: in vivo; settings: 110-120 MBq i.v., 15 or 30 minutes after administration
T1 construct: from tissue; host or cells: brain of living rats, tissue counted or sectioned after killing
T1 sequence (Q62666 1-530): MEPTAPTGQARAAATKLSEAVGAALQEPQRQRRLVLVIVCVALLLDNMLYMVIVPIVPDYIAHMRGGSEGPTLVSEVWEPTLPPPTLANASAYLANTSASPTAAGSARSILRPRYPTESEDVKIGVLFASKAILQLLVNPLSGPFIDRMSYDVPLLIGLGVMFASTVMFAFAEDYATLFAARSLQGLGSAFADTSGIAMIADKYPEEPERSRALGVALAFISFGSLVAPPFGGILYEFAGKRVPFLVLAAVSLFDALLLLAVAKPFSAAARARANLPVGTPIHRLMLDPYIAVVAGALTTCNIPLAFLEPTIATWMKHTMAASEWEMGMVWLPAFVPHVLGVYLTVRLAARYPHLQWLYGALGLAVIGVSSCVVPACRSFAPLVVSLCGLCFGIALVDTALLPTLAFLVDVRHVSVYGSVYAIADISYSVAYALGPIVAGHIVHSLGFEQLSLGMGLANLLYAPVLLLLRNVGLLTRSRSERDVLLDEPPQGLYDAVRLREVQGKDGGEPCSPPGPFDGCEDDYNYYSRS
Procedure: To the caudal vein of each rat, 110-120 MBq of (−)-[^11C]-o-MeVES was administered, and the rats were killed by cervical dislocation and had the brain extirpated 15 minutes after administration for the first rat, or 30 minutes after administration for the second rat. The extirpated brain was immediately frozen with dry ice, and a brain section 20 μm in thickness was prepared using a cryomicrotome. The brain section was mounted on a glass plate, this section was dried on a hot plate (60° C.), and images of radioactivity distribution were obtained by radioluminography.

[3] = test system: VAChT; assay: PET brain imaging of learning disability model (neurolysis) monkeys and healthy monkeys; format: in vivo, monkey; settings: 185-740 MBq i.v., images 15 minutes to 60 minutes after administration
Procedure: 185-740 MBq of (−)-[^11C]-o-MeVES was administered to a vein of each of learning disability model monkeys (neurolysis monkeys) created by selectively destroying the p75NTR positive cells (ACh neurons) in the right hemisphere of the brain with 192-Saporin (manufactured by Advanced Targeting Systems) and healthy monkeys, and image data were collected using PET for animals (PET; manufactured by Hamamatsu Photonics K.K., SHR-7700) at 10 seconds to 91 minutes after administration. The image data obtained at 15 minutes to 60 minutes after administration were picturized; the photographs thus obtained are shown in FIG. 4.

[11CH3]c1ccccc1C1CCN(C2CCCC[C@H]2O)CC1 (single isomer, unassigned; (-)) [(−)-[^11C]-o-MeVES, (−)-[^11C]-2-(4-(2-methylphenyl)piperidino)cyclohexanol]
Radioactivity level blood 5 min ([1]; i.v. 20 MBq, blood, 5 min, % of administered radioactivity per gram of tissue, mean ± S.D. n = 4-6): 0.45 ± 0.04%
Radioactivity level blood 15 min ([1]; i.v. 20 MBq, blood, 15 min, % of administered radioactivity per gram of tissue, mean ± S.D. n = 4-6): 0.27 ± 0.03%
Radioactivity level blood 30 min ([1]; i.v. 20 MBq, blood, 30 min, % of administered radioactivity per gram of tissue, mean ± S.D. n = 4-6): 0.24 ± 0.02%
Radioactivity level blood 60 min ([1]; i.v. 20 MBq, blood, 60 min, % of administered radioactivity per gram of tissue, mean ± S.D. n = 4-6): 0.18 ± 0.02%
Radioactivity level brain 5 min ([1]; i.v. 20 MBq, brain, 5 min, % of administered radioactivity per gram of tissue, mean ± S.D. n = 4-6): 5.47 ± 0.44%
Radioactivity level brain 15 min ([1]; i.v. 20 MBq, brain, 15 min, % of administered radioactivity per gram of tissue, mean ± S.D. n = 4-6): 4.54 ± 0.54%
Radioactivity level brain 30 min ([1]; i.v. 20 MBq, brain, 30 min, % of administered radioactivity per gram of tissue, mean ± S.D. n = 4-6): 4.71 ± 0.45%
Radioactivity level brain 60 min ([1]; i.v. 20 MBq, brain, 60 min, % of administered radioactivity per gram of tissue, mean ± S.D. n = 4-6): 3.86 ± 0.28%
Radioactivity level heart 5 min ([1]; i.v. 20 MBq, heart, 5 min, % of administered radioactivity per gram of tissue, mean ± S.D. n = 4-6): 3.37 ± 0.30%
Radioactivity level heart 15 min ([1]; i.v. 20 MBq, heart, 15 min, % of administered radioactivity per gram of tissue, mean ± S.D. n = 4-6): 1.82 ± 0.19%
Radioactivity level heart 30 min ([1]; i.v. 20 MBq, heart, 30 min, % of administered radioactivity per gram of tissue, mean ± S.D. n = 4-6): 1.52 ± 0.11%
Radioactivity level heart 60 min ([1]; i.v. 20 MBq, heart, 60 min, % of administered radioactivity per gram of tissue, mean ± S.D. n = 4-6): 0.96 ± 0.02%
Radioactivity level kidney 5 min ([1]; i.v. 20 MBq, kidney, 5 min, % of administered radioactivity per gram of tissue, mean ± S.D. n = 4-6): 11.10 ± 4.31%
Radioactivity level kidney 15 min ([1]; i.v. 20 MBq, kidney, 15 min, % of administered radioactivity per gram of tissue, mean ± S.D. n = 4-6): 7.52 ± 0.40%
Radioactivity level kidney 30 min ([1]; i.v. 20 MBq, kidney, 30 min, % of administered radioactivity per gram of tissue, mean ± S.D. n = 4-6): 6.02 ± 0.09%
Radioactivity level kidney 60 min ([1]; i.v. 20 MBq, kidney, 60 min, % of administered radioactivity per gram of tissue, mean ± S.D. n = 4-6): 4.15 ± 0.50%
Radioactivity level liver 5 min ([1]; i.v. 20 MBq, liver, 5 min, % of administered radioactivity per gram of tissue, mean ± S.D. n = 4-6): 2.58 ± 0.23%
Radioactivity level liver 15 min ([1]; i.v. 20 MBq, liver, 15 min, % of administered radioactivity per gram of tissue, mean ± S.D. n = 4-6): 2.93 ± 0.38%
Radioactivity level liver 30 min ([1]; i.v. 20 MBq, liver, 30 min, % of administered radioactivity per gram of tissue, mean ± S.D. n = 4-6): 3.22 ± 0.76%
Radioactivity level liver 60 min ([1]; i.v. 20 MBq, liver, 60 min, % of administered radioactivity per gram of tissue, mean ± S.D. n = 4-6): 3.28 ± 0.32%
Radioactivity level lung 5 min ([1]; i.v. 20 MBq, lung, 5 min, % of administered radioactivity per gram of tissue, mean ± S.D. n = 4-6): 16.55 ± 2.56%
Radioactivity level lung 15 min ([1]; i.v. 20 MBq, lung, 15 min, % of administered radioactivity per gram of tissue, mean ± S.D. n = 4-6): 10.38 ± 2.48%
Radioactivity level lung 30 min ([1]; i.v. 20 MBq, lung, 30 min, % of administered radioactivity per gram of tissue, mean ± S.D. n = 4-6): 8.74 ± 0.34%
Radioactivity level lung 60 min ([1]; i.v. 20 MBq, lung, 60 min, % of administered radioactivity per gram of tissue, mean ± S.D. n = 4-6): 4.81 ± 0.76%
Radioactivity level muscle 5 min ([1]; i.v. 20 MBq, muscle, 5 min, % of administered radioactivity per gram of tissue, mean ± S.D. n = 4-6): 1.57 ± 0.27%
Radioactivity level muscle 15 min ([1]; i.v. 20 MBq, muscle, 15 min, % of administered radioactivity per gram of tissue, mean ± S.D. n = 4-6): 1.42 ± 0.44%
Radioactivity level muscle 30 min ([1]; i.v. 20 MBq, muscle, 30 min, % of administered radioactivity per gram of tissue, mean ± S.D. n = 4-6): 1.18 ± 0.24%
Radioactivity level muscle 60 min ([1]; i.v. 20 MBq, muscle, 60 min, % of administered radioactivity per gram of tissue, mean ± S.D. n = 4-6): 1.00 ± 0.16%
Radioactivity level pancreas 5 min ([1]; i.v. 20 MBq, pancreas, 5 min, % of administered radioactivity per gram of tissue, mean ± S.D. n = 4-6): 8.44 ± 1.93%
Radioactivity level pancreas 15 min ([1]; i.v. 20 MBq, pancreas, 15 min, % of administered radioactivity per gram of tissue, mean ± S.D. n = 4-6): 12.13 ± 2.23%
Radioactivity level pancreas 30 min ([1]; i.v. 20 MBq, pancreas, 30 min, % of administered radioactivity per gram of tissue, mean ± S.D. n = 4-6): 11.53 ± 2.67%
Radioactivity level pancreas 60 min ([1]; i.v. 20 MBq, pancreas, 60 min, % of administered radioactivity per gram of tissue, mean ± S.D. n = 4-6): 10.67 ± 1.22%
Radioactivity level small intestine 5 min ([1]; i.v. 20 MBq, small intestine, 5 min, % of administered radioactivity per gram of tissue, mean ± S.D. n = 4-6): 6.19 ± 0.58%
Radioactivity level small intestine 15 min ([1]; i.v. 20 MBq, small intestine, 15 min, % of administered radioactivity per gram of tissue, mean ± S.D. n = 4-6): 8.76 ± 1.66%
Radioactivity level small intestine 30 min ([1]; i.v. 20 MBq, small intestine, 30 min, % of administered radioactivity per gram of tissue, mean ± S.D. n = 4-6): 8.48 ± 1.85%
Radioactivity level small intestine 60 min ([1]; i.v. 20 MBq, small intestine, 60 min, % of administered radioactivity per gram of tissue, mean ± S.D. n = 4-6): 8.90 ± 0.50%
Radioactivity level spleen 5 min ([1]; i.v. 20 MBq, spleen, 5 min, % of administered radioactivity per gram of tissue, mean ± S.D. n = 4-6): 4.97 ± 1.06%
Radioactivity level spleen 15 min ([1]; i.v. 20 MBq, spleen, 15 min, % of administered radioactivity per gram of tissue, mean ± S.D. n = 4-6): 5.90 ± 0.51%
Radioactivity level spleen 30 min ([1]; i.v. 20 MBq, spleen, 30 min, % of administered radioactivity per gram of tissue, mean ± S.D. n = 4-6): 5.56 ± 0.52%
Radioactivity level spleen 60 min ([1]; i.v. 20 MBq, spleen, 60 min, % of administered radioactivity per gram of tissue, mean ± S.D. n = 4-6): 4.24 ± 0.35%
brain accumulation ([1]; i.v., 5-60 min): retainable
organ accumulation / exposure ([1]; i.v., 5-60 min): no organs showing particularly high accumulation
local distribution in the brain (autoradiography) [2]: agreed well with the in vitro local distribution of (−)-[^3H]-vesamicol
RI accumulation in healthy monkeys (PET) ([3]; healthy monkeys): no change in the accumulation
RI accumulation in the cerebral cortex on the neurolysis side compared to the healthy side (PET) ([3]; neurolysis monkeys): significant reduction in RI accumulation
